Data on six compounds can be found in patent US20230407304A1, “USE OF MICRORNA INHIBITION TO PREVENT AND TREAT OSTEOARTHRITIS AND OTHER INFLAMMATORY DISEASES” (VIRGINIA COMMONWEALTH UNIVERSITY, priority 2020, published 2023).

Entries after “also recorded” stand apart in the source; their conditions may differ.

The test system of series [1] is rat articular chondrocytes (rArCs). Description: Stimulation of rArCs with IL-1β or TNF-α (total DNA, MMP-13, PGE2). To be noted: 10 ng/mL IL-1β or 5 and 10 ng/mL TNF-α, 24 hours, vs control. Format: cell-based. As for the experimental part: FIGS. […] (FIG. 6A) Total DNA was measured from the cell monolayer and (FIG. 6B) MMP-13, and (FIG. 6C) PGE2 proteins were measured from the conditioned media. Groups not sharing a letter (D, C, B or A over bar) are statistically significant using an alpha=0.05.
Rat articular chondrocytes (rArCs) were isolated using a previously established protocol (see Scott, supra). Briefly, rArCs were isolated from femoral condyles and tibial plateaus from 100-125 g male Sprague Dawley rats. Cartilage was sterilely sliced from the articular surfaces using a surgical blade and placed in Dulbecco's modification of Eagle's medium with 1 g/L glucose, 50 U/mL penicillin and streptomycin (pen-strep) (DMEM). […]
rArCs were plated at a seeding density of 15,000 cells/cm^2 and fed with DMEM supplemented with 10% FBS and 50 U/mL pen-strep. […] MMP-13 (ANASpec, Fremont, CA) and PGE2 (R&D Systems) were measured in the conditioned media by a microplate reader at ex/em 490 nm/520 nm, and 450 nm absorbance, respectively, in accordance with the manufacturer's directions. […] Cell layers were thawed, and mechanically lysed by ultrasonication (40V, 10s/well) (VCX-120; Vibra-cell, Newtown, CT) and DNA was measured using QuantiFluor dsDNE system kit (Promega, Madson, WI) and quantified on a fluorescence plate reader at ex/em 504 nm/531 nm. […]

Series [2] has the same test system. Kind of series: WNT/β-catenin agonist or antagonist treatment of rArCs with or without IL-1β. Format: cell-based.
For another series, the system named is WNT/β-catenin. To be noted: literature; cited from earlier work.
For series [3], the system named is rat articular chondrocytes (rArCs). Kind of series: WNT/β-catenin agonist or antagonist treatment of rArCs with or without TNF-α. Format: cell-based.
The test system is the same in series [4]. Description: miR mimic or inhibitor transfection of rArCs with or without TNF-α stimulation. Format: cell-based. On the procedure:
FIGS. 7A-7F show assessment of miR-122 and miR-451 transfection or inhibition on TNF-α stimulated rat articular chondrocytes. rArCs were transfected at 60% confluence with miR-122, miR-451, miR-122-inhibitor (122-Inh), miR-451 inhibitor (451-Inh), or an empty vehicle (Lipo) for 24 hours followed by 24 hours with or without 10 ng/mL TNF-α stimulation. (FIG. 7A, 7D) Total DNA was measured from the cell monolayer and (FIG. 7B, 7E) MMP-13 and (FIG. 7C, 7F) PGE2 proteins were measured from the conditioned media. Groups not sharing a letter (A, B or C over bar) are statistically significant using an alpha=0.05.
Rat articular chondrocytes (rArCs) were isolated using a previously established protocol (see Scott, supra). Briefly, rArCs were isolated from femoral condyles and tibial plateaus from 100-125 g male Sprague Dawley rats. Cartilage was sterilely sliced from the articular surfaces using a surgical blade and placed in Dulbecco's modification of Eagle's medium with 1 g/L glucose, 50 U/mL penicillin and streptomycin (pen-strep) (DMEM). After removing DMEM, cartilage was incubated with 0.05% trypsin (20 mins, 37° C.), rinsed with DMEM (50 U/mL pen-strep, 20 mins, 37° C.), and then digested with sterile-filtered 0.03% collagenase type II solution (Worthington Biochemical, Lakewood, NJ) in Hank's balanced salt solution (16 hrs, 37° C.). Digestion was quenched with an equal volume of DMEM containing 10% fetal bovine serum (FBS) and 50 U/mL pen-strep, strained through a 40 μm strainer (Greiner Bio-one, North Carolina), spun down at 500×g for 10 mins and plated at a seeding density of 15,000 cells/cm^2. These cells are at passage 0. All experiments used cells at passage 1.
rArCs were plated at a seeding density of 15,000 cells/cm^2 and fed with DMEM supplemented with 10% FBS and 50 U/mL pen-strep. Media were changed 24 hours after plating and then every 48 hours. After treatments described below, conditioned media were collected, centrifuged at 1,000×g for 10 mins to remove cellular debris, aliquoted, and stored at −80° C. until assayed. Cell monolayers were rinsed twice with 1 mL of 1×PBS, lysed in 500 μL of 0.05% Triton X-100, and frozen for later DNA analysis. MMP-13 (ANASpec, Fremont, CA) and PGE2 (R&D Systems) were measured in the conditioned media by a microplate reader at ex/em 490 nm/520 nm, and 450 nm absorbance, respectively, in accordance with the manufacturer's directions. Data were normalized to the DNA content of the cell monolayer. Cell layers were thawed, and mechanically lysed by ultrasonication (40V, 10s/well) (VCX-120; Vibra-cell, Newtown, CT) and DNA was measured using QuantiFluor dsDNE system kit (Promega, Madson, WI) and quantified on a fluorescence plate reader at ex/em 504 nm/531 nm. […]

The test system of the next series is articular chondrocytes. Kind of series: miR-122 / miR-451 transfection of articular chondrocytes in presence and absence of IL-1β. Format: cell-based, rat. An excerpt:
The following Examples with these microRNAs established their functions in articular chondrocytes in the presence and absence of the inflammatory cytokine IL-1β. Since IL-1β signaling is a major contributor of OA, a well-established model of creating an osteoarthritic phenotype in vitro is to stimulate cell cultures with this cytokine. This study first established that both these microRNAs were elevated in OA in the bilateral ACLT model.
The miR-451 miR (SEQ ID NO:10) was originally chosen as a control miR but it had surprising and very specific functions. […] A series of transfections and inhibition experiments with these microRNAs confirmed that these changes were due to the microRNAs themselves.

Setting [5] is: miR transfection of articular chondrocytes.
[6] abbreviates: miR transfection plus IL-1β stimulation.

Take “IL-1β: inflammatory cytokine (Peprotech) used to stimulate chondrocyte cultures”: the “total DNA of cell monolayer” value in series [1] is recorded as “no differences in DNA”.
Take `Cn1ncnc2c(=O)n(C)c(=O)nc1-2` [PKF, PKF-118-310]: in series [2], the “total DNA” value is on record as “drastically decreased total DNA”. Besides, in the series on WNT/β-catenin, the “IL-1β and TNF-α induced cartilage degradation” value was “block IL-1β and TNF-α induced cartilage degradation”.
As for TNF-α, the “total DNA of cell monolayer” value in series [1] is on record as “no differences in DNA”.
On to `[Cl-].[Li+]` [LiCl, lithium chloride], for which the “total DNA” value is on record as “decreased total DNA” in series [2] and “decreased total DNA to similar levels; also recorded: marginally decreased this” in series [3].
Turning to “miR-122: mirVana miRNA mimic rno-miR-122-5p; UGGAGUGUGACAAUGGUGUUUG (UGGAGUGUGACAAUGGUGUUUG; listed as RNA, chemistry not given here)”, in series [4] (14.5 nM mimic 24 hours, then 10 ng/mL TNF-α 24 hours), the “change of total DNA on TNF-α treatment in transfected cells” value was “modestly decreased total DNA”. For the same compound, the “total DNA after mimic transfection” value in series [4] (14.5 nM mimic, 24 hours, vs Lipo control) is reported as “increased total DNA”. In the series with articular chondrocytes (setting [5]), the proliferation result is listed as “stimulated proliferation” and the “total DNA” value is listed as “increased total DNA”. Also, in the series with articular chondrocytes (setting [6]), the “IL-1β-stimulated MMP-13” value was “able to prevent the IL-1β-stimulated increase”; the “IL-1β-stimulated PGE2” value was “able to prevent the IL-1β-stimulated increase”; the “growth factor VEGF” value is “prevented IL-1β-stimulated increase”; the “inflammatory mediators, cytokines, chemokines (IL-1α, IL-2, IL-4, IL-6, GM-CSF, MIP-1A; RANTES for miR-122)” value is “prevented IL-1β-stimulated increase”.
Consider PKF115-584, for which the “IL-1β and TNF-α induced cartilage degradation” value in the series with WNT/β-catenin is “block IL-1β and TNF-α induced cartilage degradation”.
